3 compounds from ChEMBL document CHEMBL4339183, “Discovery of N-indanyl benzamides as potent RORγt inverse agonists” (Eur J Med Chem, 2019) can be followed below.

As usually defined, the IC50 is the midpoint of a concentration-inhibition curve.

Assay [1] deals with T1, Nuclear receptor ROR-gamma (Homo sapiens, UniProt P51449).
T1 sequence (P51449 whole entry): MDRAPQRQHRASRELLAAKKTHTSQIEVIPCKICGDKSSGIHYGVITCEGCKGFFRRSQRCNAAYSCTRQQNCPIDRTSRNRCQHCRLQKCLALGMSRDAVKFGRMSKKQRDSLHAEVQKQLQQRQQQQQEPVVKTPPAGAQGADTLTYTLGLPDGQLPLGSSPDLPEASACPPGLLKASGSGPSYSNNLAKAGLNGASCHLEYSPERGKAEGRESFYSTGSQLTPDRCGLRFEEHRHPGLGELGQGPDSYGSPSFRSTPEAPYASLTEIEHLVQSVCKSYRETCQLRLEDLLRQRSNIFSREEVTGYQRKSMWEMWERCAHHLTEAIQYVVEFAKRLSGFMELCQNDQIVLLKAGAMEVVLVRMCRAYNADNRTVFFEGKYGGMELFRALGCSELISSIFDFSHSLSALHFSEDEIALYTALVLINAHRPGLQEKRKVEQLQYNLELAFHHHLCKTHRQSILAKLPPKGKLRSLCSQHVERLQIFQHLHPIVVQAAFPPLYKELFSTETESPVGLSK
Briefly: Inverse agonist activity at APC-labeled biotinylated RORgammat LBD (unknown origin) assessed as inhibition of N-(2-chloro-6-fluorobenzyl)-N-((20-methoxy-[1,10-biphenyl]-4-yl)methyl)benzenesulfonamide-induced co-activator europium-labeled biotinylated SRC1 peptide recruitment after 1 hr by LANCE-FRET assay. Background: TR-FRET usually uses a lanthanide donor and a delayed reading to cut background.

Assay [2] deals with T2, Nuclear receptor ROR-gamma (Mus musculus, UniProt P51450).
T2 sequence (P51450 whole entry): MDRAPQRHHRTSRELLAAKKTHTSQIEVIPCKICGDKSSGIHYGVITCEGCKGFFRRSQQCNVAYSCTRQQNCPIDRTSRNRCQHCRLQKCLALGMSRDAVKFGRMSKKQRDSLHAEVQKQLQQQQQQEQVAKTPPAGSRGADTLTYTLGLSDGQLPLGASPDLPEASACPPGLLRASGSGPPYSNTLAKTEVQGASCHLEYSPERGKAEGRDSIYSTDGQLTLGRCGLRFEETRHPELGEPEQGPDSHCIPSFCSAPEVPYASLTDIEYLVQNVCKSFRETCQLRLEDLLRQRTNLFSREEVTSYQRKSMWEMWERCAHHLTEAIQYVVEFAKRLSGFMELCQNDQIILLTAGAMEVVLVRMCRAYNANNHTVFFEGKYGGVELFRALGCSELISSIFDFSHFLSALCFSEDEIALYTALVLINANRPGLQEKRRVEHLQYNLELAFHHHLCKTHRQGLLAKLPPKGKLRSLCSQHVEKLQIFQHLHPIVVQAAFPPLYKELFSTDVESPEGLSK
Kind of assay: Inverse agonist activity at RORgammat in mouse CD4 positive T cells assessed as inhibition of Th17 cell differentiation by measuring IL-17 release after 4 days by cellular staining based flow cytometry.

Bounds are passed on as bounds.

On to `N#Cc1cccc(C(=O)Nc2cccc3c2ccn3C2CCN(C(=O)C3CCCC3)CC2)c1`, for which the IC50 result in assay [1] is “Not Active”.
Take `N#Cc1cccc(C(=O)Nc2ccc3c(c2)[C@H](N2CC4CCC(C2)N4C(=O)C2CCCCC2)CC3)c1`: the IC50 result in assay [2] is on record as “Not Active”.
As for `O=C(CC1CCOCC1)Nc1cccc2c1CCC2N1CC2CCC(C1)N2C(=O)C1CCCC1` (stereo not drawn), the concentration for half-maximal inhibition (IC50) in assay [1] (read-out: IC50) is more than 10 µM.
